What is called IC50 is the concentration that gives 50% inhibition. The term ED50 denotes the dose at which the effect has come halfway, by size or by number of responders.

Consider three compounds from US5428168A, “Lactol PAF antagonists” (British Biotech Pharmaceuticals Limited, priority 1990, dated 1995).

One assay addresses T1, PAF receptor (Homo sapiens, UniProt P25105).
T1 construct: Platelet concentrates were obtained from a hospital blood bank; from tissue; host or cells: human platelets (plasma membrane fraction of lysed platelets from hospital blood bank concentrates)
Kind of assay: Inhibition of [3H]-PAF receptor binding to human platelet plasma membrane (isotopic labelling and filtration). As to conditions: human platelet membranes, 0.5 nM [3H]-PAF, 0° C., 1 hour. As for the experimental part:
Compounds of general formula I inhibit PAF-induced functions in both the cellular and tissue levels by changing the PAF binding to its specific receptor site. The ability of compounds of general formula I to inhibit the binding of PAF to its specific receptor binding site on human platelet plasma membranes was measured according to the pharmacological example. […] Platelet concentrates were obtained from a hospital blood bank. These platelet concentrates (500-2500 ml.) were centrifuged at 800 rpm for 10 minutes in a SORVALL RC3B centrifuge to remove the red blood cells present. (The word SORVALL is a trade mark.) The supernatant was subsequently centrifuged at 3,000 rpm in a SORVALL RC3B centrifuge to pellet the platelets present. The platelet rich pellets were resuspended in a minimum volume of buffer (150 mM NaCl, 10 mM Tris, 2 mM EDTA, pH 7.5) and layered onto Ficoll-Paque gradients, 9 ml platelet concentrate to 2 ml Ficoll, and centrifuged at 1,900 rpm for 15 minutes in a SORVALL RT6000 centrifuge. This step removes the residual red blood cells and other nonspecific material such as lymphocytes from the preparation. The platelets which form a band between the plasma and the Ficoll were removed, resuspended in the above buffer and centrifuged at 3,000 rpm for 10 minutes in a SORVALL RT6000 centrifuge. The pelleted platelets were resuspended in buffer (10 mM Tris, 5mM MgCl2, 2 mM EDTA, pH 7.0), snap freezed in liquid N2 and allowed to thaw slowly at room temperature in order to lyse the platelets. The latter step was repeated at least 3 times to ensure proper lysis. The lysed platelets were centrifuged at 3,000 rpm for 10 minutes in a SORVALL RT6000 centrifuge and resuspended in buffer. The latter step was repeated twice in order to remove any cytoplasmic proteins which may hydrolyse the […]. The prepared platelet membranes may be stored at -70° C. After thawing the prepared membranes were centrifuged in a SORVALL RT6000 at 3,000 rpm for 10 minutes and resuspended in assay buffer. The assay was conducted by preparing a series of Tris-buffered solutions of the selected antagonist of predetermined concentrations. […] Incubation was initiated by the addition of 100 μg of the isolated membrane fraction to each of the above solutions at 0° C. […] (The word WHATMAN is a trade mark.) The residue in each case was rapidly washed 4 times with 5 ml cold (4° C.) Tris-buffer solution. […] % Inhibition=[(TB-TBA)/SB]x100 where the specific binding SB=TB-NSB […]

Assay [1] concerns endotoxin induced hypotension in the rat. Nature of the assay: Reversal of endotoxin induced hypotension in anaesthetised rats. In kind it is in vivo. As to conditions: iv, i.v. bolus, E. coli endotoxin 0111:B4, straight line interpolation, read-out: ED50 (dose resulting in 50% reversal of endotoxin induced hypotension). As for the experimental part: Rats were anaesthetised with a mixture of sodium pentobarbitone, 22.5 mg·kg^-1, and thiopental, 62.5 mg·kg^-1. The animals breathed spontaneously, air enriched with oxygen, and a carotid artery was cannulated for the measurement of blood pressure and heart rate. […] Test compounds were administered i.v. via the other jugular vein as a bolus.

For assay [2], the system named is PAF-induced hypotension in the rat. Kind of assay: Reversal of PAF-induced hypotension in anaesthetised rats. Format: in vivo, rat (male Sprague-Dawley). The conditions noted are these: iv, i.v. bolus, PAF 100 ng/kg/min i.v., straight line interpolation, read-out: ED50 (dose to cause 50% reversal of the hypotensive PAF response). The method, then: Male Sprague-Dawley rats (300-400 g) were anaesthetised with a mixture of sodium pentobarbitone, 22.5 mg·kg^-1 and thiopental 62.5 mg·kg^-1. Through a midline incision in the neck, the trachea was cannulated and the animals breathed spontaneously. A carotid artery was cannulated for the measurement of blood pressure and this signal was used to trigger a rate meter to measure heart rate. Both jugular veins were cannulated: one for the infusion of PAF and the other for the bolus administration of test compounds.
PAF, 100 ng·kg^-1 .min^-1 was infused i.v. until a sustained fall in mean blood pressure of 50 mmHg was achieved. […] The peak of this reversal was measured and the dose to cause a 50% reversal of the hypotensive PAF response (ED50) calculated by straight line interpolation and the results are presented in Table 2.

The test system of assay [3] is PAF-induced bronchoconstriction in the guinea pig. Kind of assay: Reversal of PAF-induced bronchoconstriction in anaesthetised guinea-pigs (modified Konzett-Rossler). Format: in vivo, guinea-pig (male Dunkin-Hartley). The conditions noted are these: Cavia porcellus, iv, PAF 40 ng/kg/min i.v., read-out: ED50 (dose resulting in 50% reversal of PAF-induced bronchoconstriction). The method, then:
The inhibition of PAF induced bronchoconstriction was measured in anaesthetised artificially ventilated guinea-pigs (450-500 g) using a modified version of the Konzett-Rossler technique (Konzett M and Rossler R, Naunym-Schmiedeb. Arch. Exp. Pathol. Pharmakol., 1940, 197, 71). Male Dunkin-Hartley guinea-pigs were anaesthetised with urethane, 1.6 g·kg^-1. Through a midline neck incision, the trachea was cannulated and the animal ventilated with a constant tidal volume set between 5 and 15 ml, to give a tracheal inflation pressure of 15 mmHg at a rate of 40 per minute. A carotid artery was cannulated for the measurement of blood pressure and heart rate and both jugular veins were cannulated, one for the infusion of PAF and the other for the administration of test compounds. PAF, 40 ng·kg^-1 ·min^-1, was infused i.v. to produced a 100% increase in tracheal inflation pressure, and bronchoconstrictor effects were determined.

T1 sequence (P25105 whole entry): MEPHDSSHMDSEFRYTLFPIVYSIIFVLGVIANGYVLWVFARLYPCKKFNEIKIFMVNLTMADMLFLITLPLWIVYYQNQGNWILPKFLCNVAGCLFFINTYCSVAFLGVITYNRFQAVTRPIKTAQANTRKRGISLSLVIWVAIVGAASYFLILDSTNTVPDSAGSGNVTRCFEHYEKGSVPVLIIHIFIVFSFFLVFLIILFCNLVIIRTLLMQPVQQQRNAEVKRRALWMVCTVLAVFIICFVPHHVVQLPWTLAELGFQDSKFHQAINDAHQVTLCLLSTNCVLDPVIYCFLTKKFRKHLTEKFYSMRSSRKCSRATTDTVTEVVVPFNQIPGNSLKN

For the compound `COc1ccc([C@H]2CC[C@H](OCCCn3c(C)nc4cnccc43)O2)cc1OC` (relative stereo) [Example 30B, O-(3-(1H-2-Methylimidazo[4,5-c]pyridyl)propyl)-5-(3,4-dimethoxyphenyl)-gamma-butyrolactol ether], the IC50 on PAF receptor amounted to 7 nM. In addition, the 50% effective dose (ED50) in assay [1] amounted to 7 µg/kg.
Turning to `COc1ccc([C@H]2CC[C@@H](OCCCc3cccnc3)O2)cc1OC` (relative stereo) [Example 1B, cis-O-(3-(3-pyridyl)propyl)-5-(3,4-dimethoxyphenyl)-gamma-butyrolactol ether], the ED50 in assay [2] was determined as 9 µg/kg; in assay [3], 2.1 µg/kg; in assay [1], 18 µg/kg.
`COc1ccc(C2CCC(OCCCn3c(C)nc4cnccc43)O2)cc1OC` (centres unmarked) [Example 30, O-(3-(1H-2-Methylimidazo[4,5-c]pyridyl)propyl)-5-(3,4-dimethoxyphenyl)-gamma-butyrolactol ether] gave an IC50 on PAF receptor of 15 nM. Also, the ED50 in assay [2] worked out at 1 µg/kg; in assay [3], 0.4 µg/kg.
